Test results: the NIST ThermoML archive (doi:10.1021/je700751a)

Assay: mn = molality of the nth substance listed, in mol/kg
Conditions: 101 kPa, Liquid; for viscosity: Capillary tube (Ostwald / Ubbelohde) method

O=C([O-])[C@H](O)[C@@H](O)C(=O)[O-].[K+].[K+] [dipotassium L-tartrate] + O
Conditions	mass density, 298.15 K [kg/m3]	mass density, 308.15 K [kg/m3]	mass density, 318.15 K [kg/m3]	speed of sound, 298.15 K [m/s]	viscosity, 298.15 K [mPa·s]	viscosity, 308.15 K [mPa·s]	viscosity, 318.15 K [mPa·s]
m1 = 0.0222	–	–	–	–	0.879	0.718	0.595
m1 = 0.0312	–	–	–	–	0.892	0.723	0.601
m1 = 0.0398	1002.88	999.78	995.909	1502.5	–	–	–
m1 = 0.0498	1004.29	1001.18	997.282	1503.7	–	–	–
m1 = 0.0516	–	–	–	–	0.902	0.731	0.609
m1 = 0.0615	1005.99	1002.85	998.942	1505.4	–	–	–
m1 = 0.0697	1007.18	1004.01	1000.09	1506.5	–	–	–
m1 = 0.073	–	–	–	–	0.911	0.737	0.612
m1 = 0.0797	1008.56	1005.39	1001.44	1508.8	–	–	–
m1 = 0.0897	1010.01	1006.8	1002.86	1509.5	–	–	–
m1 = 0.0909	–	–	–	–	0.917	0.75	0.623
m1 = 0.0996	1011.42	1008.21	1004.24	1510.3	–	–	–
m1 = 0.1822	–	–	–	–	0.948	0.773	0.639
m1 = 0.2842	–	–	–	–	0.985	0.799	0.665
m1 = 0.3	1039.02	1035.42	1031.19	1535.7	–	–	–
m1 = 0.3843	–	–	–	–	1.012	0.821	0.693
m1 = 0.4639	–	–	–	–	1.04	0.847	0.705
m1 = 0.4985	1064.81	1060.93	1056.45	1559.5	–	–	–
m1 = 0.6883	–	–	–	–	1.125	0.916	0.764
m1 = 0.6922	1088.8	1084.65	1079.98	1582.2	–	–	–
m1 = 0.8934	1112.36	1108	1103.17	1605.2	–	–	–
m1 = 1.098	–	–	–	–	1.294	1.054	0.879
m1 = 1.284	1155.12	1150.41	1145.3	1648.3	–	–	–
m1 = 1.468	–	–	–	–	1.474	1.206	1.006
m1 = 1.579	1185.12	1180.16	1174.96	1680.5	–	–	–
m1 = 1.878	–	–	–	–	1.71	1.389	1.157
m1 = 1.965	1221.2	1216.05	1210.59	1718.3	–	–	–
m1 = 2.443	1262.59	1257.21	1251.59	1764	–	–	–
m1 = 2.602	–	–	–	–	2.243	1.801	1.483
m1 = 2.923	1299.6	1294.09	1288.34	1805.2	–	–	–
m1 = 3.391	1331.8	1326.15	1320.32	1841.5	–	–	–
m1 = 3.405	–	–	–	–	3.301	2.613	2.12
m1 = 3.858	1362.45	1356.74	1350.83	1876.2	–	–	–
m1 = 4.077	–	–	–	–	4.296	3.367	2.7
m1 = 4.324	1389.87	1384.06	1378.1	1907	–	–	–
m1 = 4.785	1414.66	1408.83	1402.83	1935.4	–	–	–
m1 = 5.188	–	–	–	–	6.378	4.841	3.829
m1 = 5.238	1437.73	1431.81	1425.78	1960.6	–	–	–
m1 = 5.378	–	–	–	–	7.066	5.339	4.176
m1 = 5.692	1459.07	1453.12	1447.06	1984.8	–	–	–
